Where two headings read alike, the source gives them in different places.
Experiments:
[1] = system: MDRPA; assay: Checkerboard assay (combined-use MIC, FIC); type: cell-based, Pseudomonas aeruginosa; settings: for FIC, all strains / MIC50 of the antibiotic after combined use / MIC90 of the antibiotic after combined use / reduction of the antibiotic's MIC50 vs single use / reduction of the antibiotic's MIC90 vs single use / share of strains with FIC ≤ 0.5: 20 MDRPAs
Method: Test methods of the sensibilization effects of the test product to similar antibiotics: it is operated by referring to a checkerboard assay recommended by NCCLS.
The checkerboard assay is performed in a 96-pore sterile culture plate.
Calculation of a Fractional Inhibitory Concentration (FIC): FIC=S20b combined-use MIC/S20b single-use MIC+antibiotic combined-use MIC/antibiotic single-use MIC. By calculating the FIC, the combined antibacterial interaction between the EA and the antibiotic is evaluated, with synergistic effect for FIC≤0.5, additive effect for 0.5<FIC≤1, indifferent effect for 1<FIC≤2 and antagonistic effect for FIC>2. According to a sterile growth pore, the optimum concentration ratio between the EA and the antibiotic is founded out. At last, the effect of the EA to strengthen the efficacy of the antibiotic is evaluated.

[2] = system: ATCC27853; assay: MIC determination, control strain; type: cell-based
[3] = system: MDRPA; assay: MIC determination, microdilution broth method;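 also: broth microdilution per NCCLS recommendations, testing Pithecellobium clypearia water or ethanol extracts against multidrug-resistant Pseudomonas aeruginosa, with MIC50 and MIC90 derived statistically from individual MICs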
[4] = antibiotic with 10% ethanol extract
[5] = antibiotic with 60% ethanol extract
[6] = antibiotic with 95% ethanol extract
[7] = antibiotic with EA (water extract)
[8] = 20 MDRPAs, EA = 60% ethanol extract
[9] = 20 MDRPAs, EA = 95% ethanol extract
[10] = MDRPAs P1-P20, single use, EA=P. clypearia 10% ethanol extract
[11] = MDRPAs P1-P20, single use, EA=P. clypearia water extract
[12] = single use, 20 MDRPAs, section of the 10% ethanol extract
[13] = single use, 20 MDRPAs, section of the 60% ethanol extract
[14] = single use, 20 MDRPAs, section of the 95% ethanol extract

CCN1CCN(C(=O)N[C@@H](C(=O)N[C@@H]2C(=O)N3C(C(=O)O)=C(CSc4nnnn4C)CS[C@H]23)c2ccc(O)cc2)C(=O)C1=O [CFP, Cefoperazone]
93.75%: reduction of the antibiotic's MIC50 vs single use [1, 4] | reduction of the antibiotic's MIC50 vs single use [1, 5] | reduction of the antibiotic's MIC50 vs single use [1, 6]
1024 µg/mL: MIC (single use) ([3]; strain P16, EA=P. clypearia 10% ethanol extract) | MIC (single use) ([3]; strain P16, EA=P. clypearia water extract) | MIC (single use) ([3]; strain P20, EA=P. clypearia 10% ethanol extract) | MIC (single use) ([3]; strain P20, EA=P. clypearia water extract)
2 µg/mL: combined-use MIC ([1]; strain P3, EA (P. clypearia 10% ethanol extract) combined with CFP) | combined-use MIC ([1]; strain P3, EA (P. clypearia water extract) combined with CFP) | combined-use MIC ([1]; strain P10, EA (P. clypearia 10% ethanol extract) combined with CFP) | combined-use MIC ([1]; strain P12, EA (P. clypearia 10% ethanol extract) combined with CFP)
0.25 µg/mL: combined-use MIC ([1]; strain P14, EA (P. clypearia 10% ethanol extract) combined with CFP)
16 µg/mL: combined-use MIC ([1]; strain P7, EA (P. clypearia water extract) combined with CFP) | combined-use MIC ([1]; strain P15, EA (P. clypearia water extract) combined with CFP) | MIC ([3]; Pseudomonas aeruginosa, read-out: MIC (single use), strain P3, EA=P. clypearia 10% ethanol extract) | MIC ([3]; Pseudomonas aeruginosa, read-out: MIC (single use), strain P3, EA=P. clypearia water extract) | MIC ([3]; Pseudomonas aeruginosa, read-out: MIC (single use), strain P8, EA=P. clypearia 10% ethanol extract) | MIC ([3]; Pseudomonas aeruginosa, read-out: MIC (single use), strain P8, EA=P. clypearia water extract) | MIC ([3]; Pseudomonas aeruginosa, read-out: MIC (single use), strain P17, EA=P. clypearia 10% ethanol extract) | MIC ([3]; Pseudomonas aeruginosa, read-out: MIC (single use), strain P17, EA=P. clypearia water extract)
8 to 512 µg/mL: MIC Range [3, 8] | MIC Range [3, 9] | MIC Range [3, 10] | MIC Range [3, 11]
32 µg/mL: combined-use MIC ([1]; strain P1, EA (P. clypearia 10% ethanol extract) combined with CFP) | combined-use MIC ([1]; strain P1, EA (P. clypearia water extract) combined with CFP) | combined-use MIC ([1]; strain P9, EA (P. clypearia 10% ethanol extract) combined with CFP) | combined-use MIC ([1]; strain P9, EA (P. clypearia water extract) combined with CFP) | combined-use MIC ([1]; strain P13, EA (P. clypearia 10% ethanol extract) combined with CFP) | combined-use MIC ([1]; strain P13, EA (P. clypearia water extract) combined with CFP)
99.2%: reduction of the antibiotic's MIC50 vs single use [1, 7]
40%: share of strains with FIC ≤ 0.5 [1, 6]
512 µg/mL: MIC90 [3, 8] | MIC90 [3, 9] | MIC90 [3, 10] | MIC90 [3, 11] | MIC90 ([3]; Pseudomonas aeruginosa) | MIC ([3]; Pseudomonas aeruginosa, read-out: MIC (single use), strain P5, EA=P. clypearia 10% ethanol extract) | MIC ([3]; Pseudomonas aeruginosa, read-out: MIC (single use), strain P5, EA=P. clypearia water extract) | MIC ([3]; Pseudomonas aeruginosa, read-out: MIC (single use), strain P6, EA=P. clypearia 10% ethanol extract) | MIC ([3]; Pseudomonas aeruginosa, read-out: MIC (single use), strain P6, EA=P. clypearia water extract) | MIC ([3]; Pseudomonas aeruginosa, read-out: MIC (single use), strain P7, EA=P. clypearia 10% ethanol extract) | MIC ([3]; Pseudomonas aeruginosa, read-out: MIC (single use), strain P7, EA=P. clypearia water extract) | MIC ([3]; Pseudomonas aeruginosa, read-out: MIC (single use), strain P12, EA=P. clypearia 10% ethanol extract) | MIC ([3]; Pseudomonas aeruginosa, read-out: MIC (single use), strain P12, EA=P. clypearia water extract) | MIC90 [3, 12] | MIC90 [3, 13] | MIC90 [3, 14]
1 µg/mL: combined-use MIC ([1]; strain P20, EA (P. clypearia 10% ethanol extract) combined with CFP)
≤ 2: FIC, all strains [1, 4] | FIC, all strains [1, 5] | FIC, all strains [1, 6] | FIC, all strains [1, 7]
35%: share of strains with FIC ≤ 0.5 [1, 4] | share of strains with FIC ≤ 0.5 [1, 7]
4 µg/mL: MIC50 of the antibiotic after combined use [1, 4] | MIC50 of the antibiotic after combined use [1, 5] | MIC50 of the antibiotic after combined use [1, 6] | combined-use MIC ([1]; strain P4, EA (P. clypearia 10% ethanol extract) combined with CFP) | combined-use MIC ([1]; strain P4, EA (P. clypearia water extract) combined with CFP) | combined-use MIC ([1]; strain P11, EA (P. clypearia 10% ethanol extract) combined with CFP) | combined-use MIC ([1]; strain P11, EA (P. clypearia water extract) combined with CFP)
0.5 µg/mL: MIC50 of the antibiotic after combined use [1, 7] | combined-use MIC ([1]; strain P8, EA (P. clypearia 10% ethanol extract) combined with CFP) | combined-use MIC ([1]; strain P8, EA (P. clypearia water extract) combined with CFP) | combined-use MIC ([1]; strain P10, EA (P. clypearia water extract) combined with CFP) | combined-use MIC ([1]; strain P12, EA (P. clypearia water extract) combined with CFP) | combined-use MIC ([1]; strain P14, EA (P. clypearia water extract) combined with CFP) | combined-use MIC ([1]; strain P17, EA (P. clypearia 10% ethanol extract) combined with CFP) | combined-use MIC ([1]; strain P17, EA (P. clypearia water extract) combined with CFP) | combined-use MIC ([1]; strain P19, EA (P. clypearia 10% ethanol extract) combined with CFP) | combined-use MIC ([1]; strain P19, EA (P. clypearia water extract) combined with CFP) | combined-use MIC ([1]; strain P20, EA (P. clypearia water extract) combined with CFP)
50%: reduction of the antibiotic's MIC90 vs single use [1, 4] | reduction of the antibiotic's MIC90 vs single use [1, 5] | reduction of the antibiotic's MIC90 vs single use [1, 7]
64 µg/mL: MIC50 [3, 8] | MIC50 [3, 9] | MIC50 [3, 10] | MIC50 [3, 11] | MIC50 ([3]; Pseudomonas aeruginosa) | MIC ([3]; Pseudomonas aeruginosa, read-out: MIC (single use), strain P9, EA=P. clypearia 10% ethanol extract) | MIC ([3]; Pseudomonas aeruginosa, read-out: MIC (single use), strain P9, EA=P. clypearia water extract) | MIC ([3]; Pseudomonas aeruginosa, read-out: MIC (single use), strain P15, EA=P. clypearia 10% ethanol extract) | MIC ([3]; Pseudomonas aeruginosa, read-out: MIC (single use), strain P15, EA=P. clypearia water extract) | MIC ([3]; Pseudomonas aeruginosa, read-out: MIC (single use), strain P19, EA=P. clypearia 10% ethanol extract) | MIC ([3]; Pseudomonas aeruginosa, read-out: MIC (single use), strain P19, EA=P. clypearia water extract) | MIC50 [3, 12] | MIC50 [3, 13] | MIC50 [3, 14]
> 512 µg/mL: MIC ([3]; Pseudomonas aeruginosa, read-out: MIC (single use), strain P16, EA=P. clypearia 10% ethanol extract) | MIC ([3]; Pseudomonas aeruginosa, read-out: MIC (single use), strain P16, EA=P. clypearia water extract) | MIC ([3]; Pseudomonas aeruginosa, read-out: MIC (single use), strain P20, EA=P. clypearia 10% ethanol extract) | MIC ([3]; Pseudomonas aeruginosa, read-out: MIC (single use), strain P20, EA=P. clypearia water extract)
20%: share of strains with FIC ≤ 0.5 [1, 5]
75%: reduction of the antibiotic's MIC90 vs single use [1, 6]
256 µg/mL: MIC90 of the antibiotic after combined use [1, 4] | MIC90 of the antibiotic after combined use [1, 5] | MIC90 of the antibiotic after combined use [1, 7] | combined-use MIC ([1]; strain P5, EA (P. clypearia 10% ethanol extract) combined with CFP) | combined-use MIC ([1]; strain P5, EA (P. clypearia water extract) combined with CFP) | combined-use MIC ([1]; strain P6, EA (P. clypearia 10% ethanol extract) combined with CFP) | combined-use MIC ([1]; strain P6, EA (P. clypearia water extract) combined with CFP) | combined-use MIC ([1]; strain P16, EA (P. clypearia 10% ethanol extract) combined with CFP) | combined-use MIC ([1]; strain P16, EA (P. clypearia water extract) combined with CFP) | MIC ([3]; Pseudomonas aeruginosa, read-out: MIC (single use), strain P2, EA=P. clypearia 10% ethanol extract) | MIC ([3]; Pseudomonas aeruginosa, read-out: MIC (single use), strain P2, EA=P. clypearia water extract) | MIC ([3]; Pseudomonas aeruginosa, read-out: MIC (single use), strain P13, EA=P. clypearia 10% ethanol extract) | MIC ([3]; Pseudomonas aeruginosa, read-out: MIC (single use), strain P13, EA=P. clypearia water extract) | MIC ([3]; Pseudomonas aeruginosa, read-out: MIC (single use), strain P18, EA=P. clypearia 10% ethanol extract) | MIC ([3]; Pseudomonas aeruginosa, read-out: MIC (single use), strain P18, EA=P. clypearia water extract)
8 µg/mL: combined-use MIC ([1]; strain P7, EA (P. clypearia 10% ethanol extract) combined with CFP) | combined-use MIC ([1]; strain P15, EA (P. clypearia 10% ethanol extract) combined with CFP) | MIC ([2]; EA=P. clypearia 10% ethanol extract, read-out: MIC (single use)) | MIC ([2]; EA=P. clypearia water extract, read-out: MIC (single use)) | MIC ([2]; single use, EA = 60% ethanol extract, read-out: MIC) | MIC ([2]; single use, EA = 95% ethanol extract, read-out: MIC) | MIC ([3]; Pseudomonas aeruginosa, read-out: MIC (single use), strain P4, EA=P. clypearia 10% ethanol extract) | MIC ([3]; Pseudomonas aeruginosa, read-out: MIC (single use), strain P4, EA=P. clypearia water extract) | MIC ([3]; Pseudomonas aeruginosa, read-out: MIC (single use), strain P10, EA=P. clypearia 10% ethanol extract) | MIC ([3]; Pseudomonas aeruginosa, read-out: MIC (single use), strain P10, EA=P. clypearia water extract) | MIC ([3]; Pseudomonas aeruginosa, read-out: MIC (single use), strain P11, EA=P. clypearia 10% ethanol extract) | MIC ([3]; Pseudomonas aeruginosa, read-out: MIC (single use), strain P11, EA=P. clypearia water extract) | MIC ([3]; Pseudomonas aeruginosa, read-out: MIC (single use), strain P14, EA=P. clypearia 10% ethanol extract) | MIC ([3]; Pseudomonas aeruginosa, read-out: MIC (single use), strain P14, EA=P. clypearia water extract)
128 µg/mL: MIC90 of the antibiotic after combined use [1, 6] | combined-use MIC ([1]; strain P2, EA (P. clypearia 10% ethanol extract) combined with CFP) | combined-use MIC ([1]; strain P2, EA (P. clypearia water extract) combined with CFP) | combined-use MIC ([1]; strain P18, EA (P. clypearia 10% ethanol extract) combined with CFP) | combined-use MIC ([1]; strain P18, EA (P. clypearia water extract) combined with CFP) | MIC ([3]; Pseudomonas aeruginosa, read-out: MIC (single use), strain P1, EA=P. clypearia 10% ethanol extract) | MIC ([3]; Pseudomonas aeruginosa, read-out: MIC (single use), strain P1, EA=P. clypearia water extract)

Reference: patent publication US11793849B2, “Method of Chinese herbal medicine extract used for treating multiple diseases caused by drug resistant bacteria infection” (priority 2016, dated 2023)
